PubChem BioAssay (NCI)
Values joined by “and” are separate entries in the source; they are usually repeats but may differ in a detail not shown here. Equal entries are not always repeated.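 A five-concentration, 48-hour dose response in 96-well plates underlies each endpoint, interpolated linearly between surrounding concentrations. Abbreviation: GI50, concentration required for 50% inhibition of growth. TGI: total growth inhibition.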

Key:
Assay in all cases: NCI tumour cell line growth inhibition, 48 h
[1] = test system: HOP-62 NSCLC
[2] = test system: IGROV1 ovarian
[3] = test system: UO-31 renal
[4] = test system: RXF 393 renal
[5] = test system: OVCAR-3 ovarian
[6] = test system: SK-MEL-28 melanoma
[7] = test system: MOLT-4 leukemia
[8] = test system: T-47D breast
[9] = test system: MCF7 breast
[10] = test system: NCI/ADR-RES ovarian

Compound | TGI [1] | TGI [2] [µM] | TGI [3] [µM] | TGI [4] [µM] | TGI [5] [µM] | TGI [6] [µM] | TGI [7] [µM] | GI50 [1] [µM] | GI50 [2] [µM] | GI50 [3] [µM] | GI50 [4] [µM] | GI50 [5] [µM] | GI50 [6] [µM] | GI50 [7] [µM] | TGI [8] [µM] | TGI [9] [µM] | TGI [10] [µM] | GI50 [8] [µM] | GI50 [10] [µM] | GI50 [9] [µM]
CCc1ccccc1NC(=O)C1=C(C)NC(C)=C(C(=O)Nc2ccccc2CC)C1c1ccccc1Cl | > 100 µM | > 100 | > 100 | > 100 | > 100 | > 100 | > 100 |  |  |  |  |  |  |  |  |  |  |  |  | 
O=C1CC(O)CC(=O)C1=C(O)CCCCCCCCCCc1ccccc1 (stereo not given) | > 100 µM | > 100 | > 100 | > 100 | > 100 | > 100 | > 100 |  |  |  |  |  |  |  |  |  |  |  |  | 
Cc1c2ccncc2c(C)c2c1[nH]c1ccc(OC(C)C)cc12 | 2.66 µM | 2.79 | 2.89 | 2.76 | 2.98 | 3.21 | 2.97 |  |  |  |  |  |  |  |  |  |  |  |  | 
CN(O)C(=O)SCC(NC(=O)CCC(N)C(=O)O)C(=O)NCC(=O)O (stereo not given) | > 2 µM and 313 µM and > 2000 µM | > 2000 | > 2000 | > 2000 | > 2000 | > 2000 | > 2000 | > 2000 | > 2000 | > 2000 | > 2000 | > 2000 | > 2000 | > 2 |  |  |  |  |  | 
Cc1ccc(NCC(=O)N2CC(=O)Nc3ccccc32)c(C)c1 | > 100 µM |  | > 100 | > 100 | > 100 | > 100 | > 100 |  |  |  |  |  |  |  |  |  |  |  |  | 
C=C1C(=O)O[C@@H]2C[C@@H](C)[C@@H]3C=CC(=O)[C@@]3(C)[C@@H](O)[C@H]12 | 17.7 µM | 8.1 | 3.65 | 1.35 | 3.72 | 3.77 | 3.36 |  |  |  |  |  |  |  | 12.2 | 2.3 |  |  |  | 
C=CCOc1cc(NC(=S)c2ccoc2C)ccc1OC |  | > 100 | > 100 |  | > 100 | > 100 | > 100 |  |  |  |  |  |  |  | > 100 | > 100 | > 100 |  |  | 
CCOC(=O)/C(C=Nc1ccc(-c2nc3ccccc3[nH]2)cc1)=C(/C)O | > 50 µM | 16.2 | 31.1 |  | 31.7 |  |  | 19.7 | 7.35 | 10.3 |  | 12.7 |  |  | 35.4 | > 50 | 32.2 | 10.3 | 13 | 11.7
Cc1cc(CC(=O)NCCO)n(CCO)c(=O)c1 | > 100 µM | > 100 | > 100 | > 100 | > 100 | > 100 | > 100 |  |  |  |  |  |  |  |  |  |  |  |  | 
CCOC(=O)c1c(C)nc2c(c1N)CC(=O)N2Cc1ccc(OC)cc1 | 5.97 µM | > 100 | > 100 |  | > 100 | > 100 | > 100 | 2.1 | 80.3 | > 100 |  | 6.24 | > 100 | 81.3 | > 100 | > 100 | > 100 | 25.9 | 4.96 | > 100
O=[N+]([O-])c1ccc(C[P+](c2ccccc2)(c2ccccc2)c2ccccc2)cc1 | > 100 µM | > 100 | > 100 | > 100 | > 100 | > 100 | > 100 |  |  |  |  |  |  |  |  |  |  |  |  | 
CCN(CC)c1c(C(=O)/C=C/c2ccc(Cl)cc2)c(-c2ccccc2)nn(C)c1=O | 4.26 µM | 4.21 | 3.12 | 2.8 | 4.35 | 3.02 | 5.06 |  |  |  |  |  |  |  |  |  |  |  |  | 
COC(=O)NC(=O)c1cn(C2OC(CO)C(O)C2O)c(=O)[nH]c1=O (stereo not given) | > 100 µM | > 100 | > 100 |  | > 100 | > 100 | > 100 |  |  |  |  |  |  |  |  |  |  |  |  | 
O=C(NCCCCNc1cccccc1=O)OCc1ccccc1 | > 100 µM | > 100 | > 100 |  | > 100 | > 100 | > 100 |  |  |  |  |  |  |  |  |  |  |  |  | 
CC1=C(C(=O)Nc2cc(=O)n(C)c(=O)n2C)C(c2ccco2)C(C(=O)Nc2cc(=O)n(C)c(=O)n2C)=C(C)N1 | > 100 µM | > 100 | > 100 | > 100 | > 100 | > 100 | > 100 |  |  |  |  |  |  |  |  |  |  |  |  | 
CCOC(=O)c1nn2c(nc1=O)sc1ccc3ccccc3c12 | > 100 µM | > 100 | > 100 | > 100 | > 100 | > 100 | > 100 |  |  |  |  |  |  |  |  |  |  |  |  | 
CS(=O)(=O)OC1CCC2(C#N)CCC1C2=O (stereo not given) | > 100 µM | > 100 | > 100 | > 100 | > 100 | > 100 | > 100 |  |  |  |  |  |  |  |  |  |  |  |  | 
NC(=O)C(=O)N/N=C1\C(=O)N(c2ccc(Cl)cc2Cl)C(=O)C1C(=O)Nc1ccc(Cl)cc1Cl (stereo not given) | > 100 µM | > 100 | > 100 | > 100 | > 100 | > 100 | > 100 |  |  |  |  |  |  |  |  |  |  |  |  | 

Compound | TGI [1] | TGI [2] [µM] | TGI [3] [µM] | TGI [4] [µM] | TGI [5] [µM] | TGI [6] [µM] | TGI [7] [µM] | GI50 [1] [µM] | GI50 [2] [µM] | GI50 [3] [µM] | GI50 [4] [µM] | GI50 [5] [µM] | GI50 [6] [µM] | GI50 [7] [µM] | TGI [8] [µM] | TGI [9] [µM] | TGI [10] [µM] | GI50 [8] [µM] | GI50 [10] [µM] | GI50 [9] [µM]
N.N.N.N.N.NC(=O)c1nn[n-]n1.[Cl-].[Co+3] | > 100 µM | > 100 | > 100 | > 100 | > 100 | > 100 | > 100 | > 100 | > 100 | > 100 | > 100 | > 100 | > 100 | > 100 |  |  |  |  |  | 
CCCCCCCCCCCc1nnc(N)o1 | > 100 µM | > 100 | 38.3 |  | > 100 | > 100 | > 100 |  |  |  |  |  |  |  |  |  |  |  |  | 
CC(C)=CC1C[C@H](C2CC=C3C2(C)CCC2[C@@]3(C)C(=O)CC3[C@]2(C)C=CC(=O)[C@]3(C)CO)CO1 (stereo not given in full) | 30.6 µM | 29.5 | 33.1 | 23.2 | 13.2 | 19 | 8.43 |  |  |  |  |  |  |  |  |  |  |  |  | 
CCN1C(=O)N(CC)C2C1NN=c1s/c(=C\c3cccc(F)c3)c(=O)n12 (stereo not given) | > 100 µM | > 100 | > 100 |  | > 100 | > 100 | > 100 | 0.598 | 0.233 | 0.96 |  | 0.17 | 13.1 | 0.327 | > 100 | > 100 | > 100 | 17.4 | 0.059 | 0.0392
O=C(O)CCCSC(=O)Nc1ccc(N=Nc2ccccc2)cc1 | > 100 µM |  | > 100 | > 100 | > 100 | > 100 | > 100 |  |  |  |  |  |  |  |  |  |  |  |  | 
O=C(O)CCN(CCCCN(CCC(=O)O)CCC(=O)O)CCC(=O)O | > 100 µM | > 100 |  |  | > 100 | > 100 | > 100 |  |  |  |  |  |  |  |  |  |  |  |  | 
CCOc1cccc(/C=N/N=C2\C(=O)Nc3c(Cl)cc(Cl)cc32)c1O | > 100 µM | > 100 | > 100 | > 100 | > 100 | > 100 | > 100 |  |  |  |  |  |  |  |  | > 100 | > 100 |  |  | 
CC1(C)O[C@H]2[C@H](O)C[C@](O)(CO)C[C@H]2O1 |  | > 100 | > 100 | > 100 | > 100 | > 100 | > 100 |  |  |  |  |  |  |  |  |  |  |  |  | 
O=C(O)CN(CC(=O)O)Cc1cc(C#Cc2ccc(C#Cc3ccccc3)cc2)cc(CN(CC(=O)O)CC(=O)O)n1 | 71 µM | 78.1 | > 79.7 | > 62.7 | > 39.9 | > 100 | 53.7 |  |  |  |  |  |  |  |  | 41.8 | 35.6 |  |  | 
CC1=C(c2ccccc2)C(c2ccccc2)=C(c2ccccc2)C2(c3ccccc3)C(=O)C(C)CN12 (stereo not given) | > 100 µM | > 100 | > 100 | 63.5 | > 100 | > 100 | > 100 |  |  |  |  |  |  |  |  |  |  |  |  | 
O=C1N(C2CCCCC2)CC12CCCCC2 | > 100 µM | > 100 | > 100 | > 100 |  | > 100 | > 100 |  |  |  |  |  |  |  |  |  |  |  |  | 
O=C(O)C1=C(O)C(C(=O)O)C23CCCCCCCCCCC12C(C(=O)O)C(O)=C3C(=O)O (stereo not given) |  | > 100 | > 100 | > 100 | > 100 | > 100 | > 100 |  |  |  |  |  |  |  |  |  |  |  |  | 
C=CCNC(=O)N(CCCCC(NC(C)=O)C(=O)NCc1ccccc1)Cc1ccccc1 (stereo not given) | > 100 µM | > 100 | > 100 | > 100 | > 100 | > 100 | > 100 |  |  |  |  |  |  |  |  |  |  |  |  | 
COc1cc(Br)c(C=Nc2cccc3cc(OC)c(OC)cc23)cc1OC | > 100 µM | > 100 | > 100 | 50.3 | 80.8 | > 100 | > 100 |  |  |  |  |  |  |  |  |  |  |  |  | 
COc1ccc(C23C(=O)c4ccccc4N2O[C@H]2C(=O)N(c4ccccc4)C(=O)[C@H]23)cc1 (stereo not given in full) | > 100 µM | > 100 | > 100 | > 100 | > 100 | > 100 | > 100 |  |  |  |  |  |  |  |  |  |  |  |  | 
CCOC(=O)C12CCCC1(O)N(NC(=O)OC(C)(C)C)C(C)=C2C(=O)OC (stereo not given) | > 100 µM | > 100 | > 100 |  | > 100 |  | > 100 |  |  |  |  |  |  |  |  |  |  |  |  | 
COc1ccc(C(=S)N2CCN(c3cccc(C)c3)CC2)cc1OC | 29.4 µM |  | > 100 | > 100 | 5.16 | > 100 |  | 5.53 |  | 4.37 | 6.05 | 2.06 | 5.42 |  | > 100 | > 100 |  | 4.33 |  | 3.06
